Results: patent US4810635A, “Specific binding assays employing label analog to reduce sample interferences” (Miles Inc., priority 1986, dated 1989)
pKd: −log10 of the molar value.

Tests used:
[1] = tested on: riboflavin-binding monoclonal antibody (IgGλ monoclonal anti-flavin antibody) in the serum of a patient with multiple myeloma; conditions: cited from earlier work; for binding to the antibody relative to riboflavin: competitive-binding studies with flavin analogs and [14C]-labeled riboflavin
[2] = target: apoglucose oxidase (Aspergillus niger, UniProt P13006); experiment: hCG ARIS assay: recombination of hCG-FAD conjugate with apoglucose oxidase, with or without FMN; type: biochemical; conditions: 10 μM FMN, 5 nM hCG-FAD conjugate, no serum
apoglucose oxidase, sequence (P13006 23-605 limits assumed): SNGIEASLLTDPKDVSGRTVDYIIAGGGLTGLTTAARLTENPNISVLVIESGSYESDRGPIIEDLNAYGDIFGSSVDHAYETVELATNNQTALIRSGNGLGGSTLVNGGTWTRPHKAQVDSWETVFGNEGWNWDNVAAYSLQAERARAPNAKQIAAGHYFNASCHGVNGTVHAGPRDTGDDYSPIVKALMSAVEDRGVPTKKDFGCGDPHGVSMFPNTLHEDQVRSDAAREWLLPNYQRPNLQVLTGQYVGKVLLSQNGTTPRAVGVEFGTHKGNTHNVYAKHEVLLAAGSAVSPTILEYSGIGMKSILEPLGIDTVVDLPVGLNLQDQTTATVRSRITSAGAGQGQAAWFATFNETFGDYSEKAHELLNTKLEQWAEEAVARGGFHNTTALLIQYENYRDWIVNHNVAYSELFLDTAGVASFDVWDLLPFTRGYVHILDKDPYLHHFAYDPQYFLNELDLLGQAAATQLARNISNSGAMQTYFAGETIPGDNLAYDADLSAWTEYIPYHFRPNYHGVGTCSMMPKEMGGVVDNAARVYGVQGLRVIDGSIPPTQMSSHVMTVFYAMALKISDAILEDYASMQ
Procedure: In order to study the effect of flavin analogs in low level protein ARIS assays, a series of experiments were performed. In all cases the following manual assay protocol was employed. FAD-conjugate was incubated in 2.0 mL of assay mixture containing 10 mM DHSA, 0.1M glucose, 25 μg/mL horseradish peroxidase, 0.1% bovine serum albumin (BSA) in 0.1 M sodium phosphate at pH 7.0 with or without 5% serum and/or 10 μM FMN. After 30 minutes at 37° C., 100 μL of apoglucose oxidase/antiglucose oxidase (3 μM apoenzyme) in 50% glycerol and 4 μM 4-aminoantipyrene was added to initiate the reaction. Following a 30 minute assay incubation step at 37° C. the absorbance was measured at 520 nm.
Two controls were performed during this experiment: (1) conjugate, no serum, no FMN (maximum activity) and (2) conjugate, no serum, plus FMN (assess FMN effect on maximum activity).

Structure (SMILES): Cc1cc2nc3c(=O)[nH]c(=O)nc-3n(C[C@H](O)[C@H](O)[C@H](O)COP(=O)(O)OP(=O)(O)OC[C@H]3O[C@@H](n4cnc5c(N)ncnc54)[C@H](O)[C@@H]3O)c2cc1C [FAD, flavin adenine dinucleotide]
- binding to the antibody relative to riboflavin [1]: bound strongly to the antibody but not as tightly as FMN or riboflavin

Structure (SMILES): Cc1cc2nc3c(=O)[nH]c(=O)nc-3n(C[C@H](O)[C@H](O)[C@H](O)COP(=O)(O)O)c2cc1C [FMN, flavin mononucleotide]
- inhibition at 10 µM ([2]; read-out: decrease of the maximum activity of the conjugate): ~9%
- activity at 10 µM ([2]; relative to conjugate without FMN (maximum activity)): 91%
- binding to the antibody relative to riboflavin [1]: bound equally well to this antibody as riboflavin

Structure (SMILES): Cc1cc2nc3c(=O)[nH]c(=O)nc-3n(C[C@H](O)[C@H](O)[C@H](O)CO)c2cc1C [riboflavin]
- pKd ([1]; high affinity (reversible) flavin-binding site): 9.22
